Results taken from patent publication US10233195B2, “Anti-fibrotic pyridinones” (InterMune, Inc., priority 2014, dated 2019).

Experiments:
[1] = tested on: TGF-b induced Endothelin-1 production; experiment: ET-1 assay: inhibitory effect on TGF-b induced endothelin-1 production; type: cell-based; conditions: Homo sapiens, Fibroblast; fibroblasts, stimulant (TGFb, serum, LPA etc), ET-1 in media by ELISA, 4-parameter fit
Procedure, shortened: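 Fibroblasts (primary human lung/dermal, HFL-1, 3T3) serum-starved 0-48 h, preincubated ~30 min with compound, then stimulated (TGFb, serum or LPA) for 16-48 h. Secreted ET-1 measured by ELISA; EC50 from 4-parameter logistic fit, with CC50 from ATPlite in the same wells.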

[2] = tested on: Fibroblasts (primary human lung and dermal, HFL-1, 3T3 etc); experiment: Cell proliferation assay (BrdU incorporation); type: cell-based; conditions: HFL1, stimulant (LPA, TGFb, serum etc), 50% inhibition of the increase of BrdU incorporation
Procedure, shortened: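 Serum-starved (24-48 h) fibroblasts pretreated with compound 0-30 min, then stimulated (LPA, TGFb, serum etc) for 16-24 h before BrdU, labelled a further 8 h. BrdU incorporation read by ELISA at 450 nm; IC50 taken as 50% inhibition of the stimulant-induced increase over unstimulated wells.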

| Compound | EC50 [1] | IC50 [2] |
| --- | --- | --- |
| Cc1cc(=O)n(-c2ccccc2NC(N)=O)cc1-c1ccc(F)cc1 [Compound 557] | < 50 µM | < 50 µM |
| Cc1nc2c(=O)n(-c3ccc(OC(F)(F)F)cc3)cc(-c3cnn(C)c3)c2o1 [Compound 569] | < 50 µM | < 50 µM |
| O=c1c2[nH]ccc2c(-c2cn[nH]c2)cn1-c1ccc(OC(F)(F)F)cc1 [Compound 604] | < 50 µM | < 50 µM |
| Cn1cc(-c2cn(-c3ccc(OC(F)(F)F)cc3)c(=O)c3nnn(CCF)c23)cn1 [Compound 687] | < 50 µM | < 50 µM |
| O=c1c2nccnc2c(-c2cn[nH]c2)cn1-c1ccc(OC(F)(F)F)cc1 [Compound 400] | < 50 µM | < 50 µM |
| O=c1ccc(-c2ccc(F)cc2)cn1-c1ccccc1F [Compound 290] | 50 to 200 µM | > 200 µM |
| Cc1cc(=O)n(-c2ccc(OC(F)(F)F)cc2)cc1-c1c(C)nn(C)c1C [Compound 237] | 50 to 200 µM | < 50 µM |
| CCn1nnc2c(=O)n(-c3ccc(OC(F)(F)F)cc3)cc(-c3ccc(F)cc3)c21 [Compound 682] | < 50 µM | < 50 µM |
| Cn1cc(C2=CN(c3ccc(OC(F)(F)F)cc3)CC=C2Oc2ccc(C(N)=O)cc2)cn1 [Compound 535] | < 50 µM | < 50 µM |
| CCOc1ccc(-n2cc(-c3cn[nH]c3)c(C)cc2=O)c(C)c1 [Compound 219] | 50 to 200 µM | > 200 µM |
| Cn1cc(-c2cn(-c3ccc(OC(F)(F)F)cc3)c(=O)cc2NCc2ccc(F)cc2F)cn1 [Compound 404] | < 50 µM | < 50 µM |
| Cc1cc(=O)n(-c2ccc(OC(F)(F)F)cc2)cc1-c1cscn1 [Compound 262] | 50 to 200 µM | < 50 µM |
